Test results: EP4678638A1, “NEW E3 UBIQUITIN LIGASE LIGAND, PROTEIN DEGRADATION AGENT AND USE THEREOF” (priority 2023, dated 2024)

Target: T1, IRAK4 (Homo sapiens, UniProt Q9NWZ3)
T1 construct: evaluate the effects of the compounds of the present disclosure on the expression of target proteins in cells; endogenous in cells; host or cells: hPBMC
T1 sequence (Q9NWZ3 1-460): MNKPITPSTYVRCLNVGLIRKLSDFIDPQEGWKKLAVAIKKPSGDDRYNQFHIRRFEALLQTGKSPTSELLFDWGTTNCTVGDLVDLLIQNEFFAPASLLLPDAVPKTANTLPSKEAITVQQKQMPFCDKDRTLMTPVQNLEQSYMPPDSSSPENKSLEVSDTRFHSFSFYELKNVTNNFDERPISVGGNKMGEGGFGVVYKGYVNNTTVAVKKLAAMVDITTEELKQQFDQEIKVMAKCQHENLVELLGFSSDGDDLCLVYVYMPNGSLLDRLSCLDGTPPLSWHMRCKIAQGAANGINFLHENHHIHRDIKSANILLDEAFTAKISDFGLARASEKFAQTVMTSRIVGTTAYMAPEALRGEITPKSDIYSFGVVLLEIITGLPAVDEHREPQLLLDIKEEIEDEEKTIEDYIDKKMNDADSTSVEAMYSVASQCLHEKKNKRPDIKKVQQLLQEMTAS
Assay: Western blot degradation of IRAK4 (hPBMC)
Assay type: cell-based
Settings: Table D1
Experimental: Conventional Western blot assay was performed to evaluate the effects of the compounds of the present disclosure on the expression of target proteins in cells.
(1) Cell Seeding and Protein Harvesting: The selected cells were processed according to the cell seeding procedure and protein harvesting procedure in Table III-2. Table III-2 Cell Seeding and Protein Harvesting Procedures
(2) To the collected supernatant, 5X SDS sample loading buffer was added, followed by denaturation at 95°C for 5 minutes. The denatured samples were then separated by SDS-PAGE electrophoresis on a polyacrylamide gel. Proteins were transferred to a nitrocellulose membrane (0.45 µm NC membrane), blocked with blocking buffer at room temperature for 1 hour, and subjected to antibody incubation and development procedures according to the antibody manufacturer's instructions (Cell Signaling Technology).
Half-Maximal Degradation Concentration value (the drug concentration required for degrading proteins by 50%, abbreviated as DC50) reads method: comparing the grayscale values of Western blot bands from drug-treated samples with those from blank DMSO-treated controls, and identifying the drug concentration range at which the grayscale value is half that of the DMSO-treated control bands.
DC50 values can be calculated using ImageJ software to measure grayscale values of Western blot bands from drug-treated samples. The concentration-response curve is fitted to estimate the drug concentration corresponding to half the grayscale value.
Target protein remaining (%) refers to the percentage of target protein remaining in hPBMC cells after treatment with protein degrader compounds.
Calculation method for target protein remaining (%): Use ImageJ software to measure grayscale values of Western blot bands from drug (protein degrader)-treated samples. The grayscale value of drug-treated bands is divided by that of internal control protein bands, and the resulting quotient is normalized to obtain the relative percentage of remaining target protein after protein degrader treatment.
Target protein degradation rate (%) = 100% - target protein remaining (%).

Row | Structure (SMILES) | Degradation of substrate protein IRAK4 (substrate protein remaining %)
1 | CC(C)Nc1cc(-n2ccc3cc(C#N)cnc32)ncc1C(=O)NC1CCN(Cc2ccc(C3CCC(=O)NC3=O)cn2)CC1 (stereo not drawn) [GT-07411, 6-(5-cyano-1H-pyrrolo[2,3-b]pyridin-1-yl)-N-(1-((5-(2,6-dioxopiperidin-3-yl)pyridin-2-yl)methyl)piperidin-4-yl)-4-(isopropylamino)nicotinamide] | A (A is defined as 0% ≤ substrate protein remaining % ≤ 80%)
2 | COc1cc2nn(C3CCN(Cc4cccc(NC5CCC(=O)NC5=O)c4)CC3)cc2cc1NC(=O)c1cccc(C(F)(F)F)c1 (stereo not drawn) [GT-04749, N-(2-(1-(3-((2,6-dioxopiperidin-3-yl)amino)benzyl)piperidin-4-yl)-6-methoxy-2H-indazol-5-yl)-3-(trifluoromethyl)benzamide] | A (A is defined as 0% ≤ substrate protein remaining % ≤ 80%)
3 | CC(C)Nc1cc(-n2ccc3cc(C#N)cnc32)ncc1C(=O)NC1CCN(Cc2cc(N3CCC(=O)NC3=O)ncc2F)CC1 [GT-07408, 6-(5-cyano-1H-pyrrolo[2,3-b]pyridin-1-yl)-N-(1-((2-(2,4-dioxotetrahydropyrimidin-1(2H)-yl)-5-fluoropyridin-4-yl)methyl)piperidin-4-yl)-4-(isopropylamino)nicotinamide] | A (A is defined as 0% ≤ substrate protein remaining % ≤ 80%)
4 | Cc1cc(-c2nc(C(=O)Nc3cc4oc(N5CCN(Cc6ccc(N7CCC(=O)NC7=O)cc6)CC5)nc4nc3N3CC[C@@H](O)C3)co2)ccn1 [GT-05807, (R)-N-(2-(4-(4-(2,4-dioxotetrahydropyrimidin-1(2H)-yl)benzyl)piperazin-1-yl)-5-(3-hydroxypyrrolidin-1-yl)oxazolo[4,5-b]pyridin-6-yl)-2-(2-methylpyridin-4-yl)oxazole-4-carboxamide] | A (A is defined as 0% ≤ substrate protein remaining % ≤ 80%)
5 | COc1cc2nn(C3CCN(Cc4cccnc4C4CCC(=O)NC4=O)CC3)cc2cc1NC(=O)c1cccc(C(F)(F)F)n1 (stereo not drawn) [GT-07550, N-(2-(1-((2-(2,6-dioxopiperidin-3-yl)pyridin-3-yl)methyl)piperidin-4-yl)-6-methoxy-2H-indazol-5-yl)-6-(trifluoromethyl)picolinamide] | A (A is defined as 0% ≤ substrate protein remaining % ≤ 80%)
6 | CC(C)(O)c1cc2nc(C3CCN(Cc4cccnc4C4CCC(=O)NC4=O)CC3)sc2cc1NC(=O)c1cccc(C(F)(F)F)n1 (stereo not drawn) [GT-07625, N-(2-(1-((2-(2,6-dioxopiperidin-3-yl)pyridin-3-yl)methyl)piperidin-4-yl)-5-(2-hydroxypropan-2-yl)benzo[d]thiazol-6-yl)-6-(trifluoromethyl)picolinamide] | A (A is defined as 0% ≤ substrate protein remaining % ≤ 80%)
7 | CC(C)(O)c1cc2nc(C3CCN(Cc4ccnc(N5CCC(=O)NC5=O)c4)CC3)sc2cc1NC(=O)c1cccc(C(F)(F)F)n1 [GT-07619, N-(2-(1-((2-(2,4-dioxotetrahydropyrimidin-1(2H)-yl)pyridin-4-yl)methyl)piperidin-4-yl)-5-(2-hydroxypropan-2-yl)benzo[d]thiazol-6-yl)-6-(trifluoromethyl)picolinamide] | A (A is defined as 0% ≤ substrate protein remaining % ≤ 80%)
8 | CC(C)(O)c1cc2nc(C3CCN(Cc4cccnc4C4CCC(=O)NC4=O)CC3)oc2cc1NC(=O)c1cccc(C(F)(F)F)n1 (stereo not drawn) [GT-07631, N-(2-(1-((2-(2,6-dioxopiperidin-3-yl)pyridin-3-yl)methyl)piperidin-4-yl)-5-(2-hydroxypropan-2-yl)benzo[d]oxazol-6-yl)-6-(trifluoromethyl)picolinamide] | A (A is defined as 0% ≤ substrate protein remaining % ≤ 80%)
9 | O=C1CCC(c2ccc(CN3CCC(n4cc(NC(=O)c5coc(-c6ccnc(NCC7CC7)c6)n5)c(C(F)F)n4)CC3)cc2F)C(=O)N1 (stereo not drawn) [GT-04176, 2-(2-((cyclopropylmethyl)amino)pyridin-4-yl)-N-(3-(difluoromethyl)-1-(1-(4-(2,6-dioxopiperidin-3-yl)-3-fluorobenzyl)piperidin-4-yl)-1H-pyrazol-4-yl)oxazole-4-carboxamide] | A (A is defined as 0% ≤ substrate protein remaining % ≤ 80%)
10 | COc1cc2nn(C3CCN(Cc4cccc(N5CCC(=O)NC5=O)c4)CC3)cc2cc1NC(=O)c1cccc(C(F)(F)F)c1 [GT-04750, N-(2-(1-(3-(2,4-dioxotetrahydropyrimidin-1(2H)-yl)benzyl)piperidin-4-yl)-6-methoxy-2H-indazol-5-yl)-3-(trifluoromethyl)benzamide] | A (A is defined as 0% ≤ substrate protein remaining % ≤ 80%)
11 | CC(C)Nc1cc(-n2ccc3cc(C#N)cnc32)ncc1C(=O)NC1CCN(Cc2ccnc(C3CCC(=O)NC3=O)c2)CC1 (stereo not drawn) [GT-07412, 6-(5-cyano-1H-pyrrolo[2,3-b]pyridin-1-yl)-N-(1-((2-(2,6-dioxopiperidin-3-yl)pyridin-4-yl)methyl)piperidin-4-yl)-4-(isopropylamino)nicotinamide] | A (A is defined as 0% ≤ substrate protein remaining % ≤ 80%)
12 | CC(C)(O)c1cc2nc(C3CCN(Cc4ccnc(N5CCC(=O)NC5=O)c4)CC3)oc2cc1NC(=O)c1cccc(C(F)(F)F)n1 [GT-07627, N-(2-(1-((2-(2,4-dioxotetrahydropyrimidin-1(2H)-yl)pyridin-4-yl)methyl)piperidin-4-yl)-5-(2-hydroxypropan-2-yl)benzo[d]oxazol-6-yl)-6-(trifluoromethyl)picolinamide] | A (A is defined as 0% ≤ substrate protein remaining % ≤ 80%)
13 | CC(C)(O)c1cc2nc(C3CCN(Cc4ccc(C5CCC(=O)NC5=O)cc4)CC3)oc2cc1NC(=O)c1cccc(C(F)(F)F)n1 (stereo not drawn) [GT-05771, N-(2-(1-(4-(2,6-dioxopiperidin-3-yl)benzyl)piperidin-4-yl)-5-(2-hydroxypropan-2-yl)benzo[d]oxazol-6-yl)-6-(trifluoromethyl)picolinamide] | A (A is defined as 0% ≤ substrate protein remaining % ≤ 80%)
14 | O=C1CCN(c2cccc(CN3CCC(n4cc(NC(=O)c5cnn6ccc(N7CCOCC7)nc56)c(C(F)F)n4)CC3)c2)C(=O)N1 [GT-04177, N-(3-(difluoromethyl)-1-(1-(3-(2,4-dioxotetrahydropyrimidin-1(2H)-yl)benzyl)piperidin-4-yl)-1H-pyrazol-4-yl)-5-morpholinopyrazolo[1,5-a]pyrimidine-3-carboxamide] | A (A is defined as 0% ≤ substrate protein remaining % ≤ 80%)
15 | COc1cc2nn(C3CCN(Cc4ccc(N5CCC(=O)NC5=O)nc4)CC3)cc2cc1NC(=O)c1cccc(C(F)(F)F)c1 [GT-04879, N-(2-(1-((6-(2,4-dioxotetrahydropyrimidin-1(2H)-yl)pyridin-3-yl)methyl)piperidin-4-yl)-6-methoxy-2H-indazol-5-yl)-3-(trifluoromethyl)benzamide] | A (A is defined as 0% ≤ substrate protein remaining % ≤ 80%)
